{"source": "patent US20050106236A1", "about": "“5-Ht4partial agonist pharmaceutical compositions” (priority 2001, published 2005)", "experiment": "Solubility of tegaserod in water", "format": "physicochemical", "conditions": "at 25° C. in water", "procedure": "A preferred agent is tegaserod, a 5-HT4 partial agonist of formula [drawing 1] or pharmaceutically acceptable salt form thereof, e.g. the hydrogen maleate (hereinafter “hml”) salt. Tegaserod has a solubility of about 0.02% at 25° C. in water and is acid sensitive.", "data": [{"compound": "CCCCCNC(=N)NN=Cc1c[nH]c2ccc(OC)cc12", "note": "[Tegaserod, 3-(5-methoxy-1H-Indol-3-yl-methylene)-N-pentylcarbazimidamide]", "values": [{"measurement": "solubility", "value": "about 0.02%"}]}]}
